Results on 21 compounds are retold here after ChEMBL document CHEMBL5576076, “Bioisosteric heterocyclic analogues of natural bioactive flavonoids by scaffold-hopping approaches: State-of-the-art and perspectives in medicinal chemistry” (Bioorg Med Chem, 2024).

Experiment [1] has as its target Epidermal growth factor receptor (Homo sapiens, UniProt P00533). The experiment in a line: Inhibition of EGFR (unknown origin).
The subject of experiment [2] is HT-1080. Put plainly: cells. The note with it: Homo sapiens, HT-1080, 48 h.
Description: Antiproliferative activity against human HT-1080 cells assessed as reduction in cell viability incubated for 48 hrs by MTT assay
The test system of experiment [3] is WiDr. The experiment in a line: Antiproliferative activity against human WiDr cells assessed as reduction in cell viability incubated for 48 hrs by MTT assay. Format: functional, cell-based.
For experiment [4], the target named is Mitogen-activated protein kinase; ERK1/ERK2 (Homo sapiens, UniProt P27361+P28482). Put plainly: Inhibition of RAF1- induced activation of MEK (unknown origin) signalling pathway assessed as reduction in ERK1/2 phosphorylation. Format: protein assay.
Experiment [5] is filed under the species Homo sapiens. The experiment in a line: Inhibition of human Lipoxygenase at 100 uM relative to control.
A short description of experiment [6]: Inhibition of human LOX.
The subject of experiment [7] is DU-145. Put plainly: Antitumor activity against human DU-145 cells xenografted in Balb/c nude mouse model assessed as tumor growth inhibition at 5 mg/kg, ip administered once daily for 16 days relative to control. To be noted: time 16 day. Further details: scale not given: the % may be the effect or the level left. Format: functional.
Experiment [8] concerns DU-145. The experiment in a line: Antiproliferative activity against human DU-145 cells assessed as reduction in cell viability measured for 48 hrs by MTT assay. Format: functional, cell-based. To be noted: DU-145, 48 h.
For experiment [9], the system named is KB. The experiment in a line: Cytotoxicity against human KB cells assessed as reduction in cell growth incubated for 48 hrs by MTT assay. Format: functional, cell-based.
Experiment [10] has as its system HepG2. Put plainly: Cytotoxicity against human HepG2 cells assessed as reduction in cell growth incubated for 48 hrs by MTT assay. The note with it: HepG2, 48 h. Format: functional, cell-based.
Experiment [11] deals with MCF7. Put plainly: cells. The note with it: Homo sapiens, MCF7, 72 h.
Experiment [12] has as its target Tubulin (Homo sapiens) (UniProt P68371+Q9H4B7+P0DPH7+P68366+Q13509+Q71U36+P04350+Q3ZCM7+P07437+P68363+Q9BQE3+Q6PEY2+Q13885+Q9BVA1+Q9BUF5). The experiment in a line: Inhibition of [3H]-colchicine binding to tubulin (unknown origin) at 5 uM relative to control. It is filed as protein-complex assay.
The target of experiment [13] is Tubulin. Put plainly: Inhibition of tubulin polymerization (unknown origin). Format: protein-complex assay, Homo sapiens.
The subject of experiment [14] is Influenza A virus. The experiment in a line: Antiviral activity against Influenza A virus H1N1 infected in dog MDCK cells assessed as inhibition in virus-induced cytopathic effect incubated for 48 hrs by SRB assay. Format: functional, organism-based.
The nature of experiment [15]: Inhibition of Influenza A virus H1N1 neuraminidase.
In experiment [16] the test system is A-375. The experiment in a line: Antiproliferative activity against human A-375 cells assessed as reduction in cell growth incubated for 72 hrs by MTT assay. Format: functional, cell-based. The note with it: A-375, 72 h.
Experiment [17] relates to PT-45. The experiment in a line: Antiproliferative activity against human PT-45 cells assessed as reduction in cell growth incubated for 72 hrs by MTT assay. The note with it: PT-45, 72 h. It is filed as functional, cell-based.
The subject of experiment [18] is OE33. The experiment in a line: Antiproliferative activity against human OE33 cells assessed as reduction in cell growth incubated for 72 hrs by MTT assay. It is filed as functional, cell-based. To be noted: OE33, 72 h.
In experiment [19] the test system is HeLa. The experiment in a line: Antiproliferative activity against human HeLa cells assessed as reduction in cell viability incubated for 72 hrs by MTT assay. Format: functional, cell-based.
In experiment [20] the test system is NCI-H295R. Put plainly: Antiproliferative activity against human NCI-H295R cells assessed as reduction in cell viability incubated for 72 hrs by MTT assay. Format: functional, cell-based.
The subject of experiment [21] is HepG2. Put plainly: Antiproliferative activity against human HepG2 cells assessed as reduction in cell viability incubated for 72 hrs by MTT assay. It is filed as functional, cell-based. To be noted: HepG2, 72 h.
In experiment [22] the test system is ARO. The experiment in a line: Antiproliferative activity against human ARO cells assessed as reduction in cell growth incubated for 48 hrs by MTT assay. It is filed as functional, cell-based.
Experiment [23] relates to Jurkat. Put plainly: Antiproliferative activity against human Jurkat cells assessed as reduction in cell growth incubated for 72 hrs by MTT assay. Format: functional, cell-based.
Experiment [24] deals with HT-29. The experiment in a line: Antiproliferative activity against human HT-29 cells assessed as reduction in cell growth incubated for 72 hrs by MTT assay. It is filed as functional, cell-based. To be noted: HT-29, 72 h.
The subject of experiment [25] is MCF7. Put plainly: Antiproliferative activity against human MCF7 cells assessed as reduction in cell growth incubated for 48 hrs by MTT assay. Format: functional, cell-based. The note with it: MCF7, 48 h.
The test system of experiment [26] is OVCAR-3. The experiment in a line: Antiproliferative activity against human OVCAR-3 cells assessed as reduction in cell viability incubated for 72 hrs by MTT assay. The note with it: OVCAR-3, 72 h. It is filed as functional, cell-based.
Experiment [27] relates to MDA-MB-468. Put plainly: Antiproliferative activity against human MDA-MB-468 cells assessed as reduction in cell growth incubated for 72 hrs by MTT assay. It is filed as functional, cell-based. To be noted: MDA-MB-468, 72 h.
Experiment [28] relates to A549. The experiment in a line: Antiproliferative activity against human A549 cells assessed as reduction in cell growth incubated for 48 hrs by MTT assay. Format: functional, cell-based. The note with it: A549, 48 h.
Experiment [29] has as its system A549. Put plainly: Antiproliferative activity against human A549 cells assessed as reduction in cell growth incubated for 72 hrs by MTT assay. Format: functional, cell-based. To be noted: A549, 72 h.
Experiment [30] deals with OE19. Put plainly: Antiproliferative activity against human OE19 cells assessed as reduction in cell growth incubated for 72 hrs by MTT assay. Format: functional, cell-based. To be noted: OE19, 72 h.
Experiment [31] deals with Human immunodeficiency virus 1. The experiment in a line: Antiviral activity against HIV1 infected in H9 cells assessed as reduction in viral replication. Format: functional. To be noted: Human immunodeficiency virus 1, H9; read-out: ED50 (the source's name).
Experiment [32] concerns MV4-11. The experiment in a line: Antiproliferative activity against human MV4-11 cells assessed as reduction in cell growth incubated for 48 hrs by MTT assay. It is filed as functional, cell-based. To be noted: MV4-11, 48 h.
For experiment [33], the system named is HL-60. Put plainly: Antiproliferative activity against human HL-60 cells assessed as reduction in cell growth incubated for 48 hrs by MTT assay. Format: functional, cell-based. The note with it: HL-60, 48 h.
For experiment [34], the target named is Dual specificity mitogen-activated protein kinase kinase 1 (Homo sapiens, UniProt Q02750). The experiment in a line: Inhibition of RAF1- induced activation of MEK (unknown origin) signalling pathway assessed as reduction in MEK1 phosphorylation.
Chain of Dual specificity mitogen-activated protein kinase kinase 1 (Q02750 whole entry): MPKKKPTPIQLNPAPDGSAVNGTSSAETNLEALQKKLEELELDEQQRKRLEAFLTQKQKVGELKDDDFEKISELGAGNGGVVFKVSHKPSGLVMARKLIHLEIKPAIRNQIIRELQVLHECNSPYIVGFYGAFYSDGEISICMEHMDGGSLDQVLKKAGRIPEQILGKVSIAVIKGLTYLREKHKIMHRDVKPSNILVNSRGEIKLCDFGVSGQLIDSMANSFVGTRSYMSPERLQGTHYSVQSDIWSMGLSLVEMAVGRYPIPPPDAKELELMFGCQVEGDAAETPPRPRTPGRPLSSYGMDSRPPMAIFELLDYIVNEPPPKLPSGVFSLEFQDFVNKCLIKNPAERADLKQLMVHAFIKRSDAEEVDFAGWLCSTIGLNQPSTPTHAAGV
Experiment [35] has as its system Staphylococcus aureus. The experiment in a line: Antibacterial activity against Methicillin-resistant Staphylococcus aureus assessed as reduction in bacterial growth. It is filed as functional.
Experiment [36] has as its target Quinolone resistance protein NorA (Staphylococcus aureus) (UniProt P0A0J7). Put plainly: Inhibition of NorA efflux pump in Staphylococcus aureus SA1199B overexpressing NorA gene assessed as inhibition of EtBr efflux at 50 uM incubated for 20 mins by fluorometric assay.
For experiment [37], the system named is Panel NCI-60 (60 carcinoma cell lines). The experiment in a line: Antiproliferative activity against human Panel NCI-60 (60 carcinoma cell lines) assessed as reduction in cell viability. It is filed as functional, cell-based.
Experiment [38] deals with Cytochrome P450 1A2 (Homo sapiens, UniProt P05177). The experiment in a line: Inhibition of CYP1A2 (unknown origin). It is filed as ADME.
Chain of Cytochrome P450 1A2 (P05177 whole entry): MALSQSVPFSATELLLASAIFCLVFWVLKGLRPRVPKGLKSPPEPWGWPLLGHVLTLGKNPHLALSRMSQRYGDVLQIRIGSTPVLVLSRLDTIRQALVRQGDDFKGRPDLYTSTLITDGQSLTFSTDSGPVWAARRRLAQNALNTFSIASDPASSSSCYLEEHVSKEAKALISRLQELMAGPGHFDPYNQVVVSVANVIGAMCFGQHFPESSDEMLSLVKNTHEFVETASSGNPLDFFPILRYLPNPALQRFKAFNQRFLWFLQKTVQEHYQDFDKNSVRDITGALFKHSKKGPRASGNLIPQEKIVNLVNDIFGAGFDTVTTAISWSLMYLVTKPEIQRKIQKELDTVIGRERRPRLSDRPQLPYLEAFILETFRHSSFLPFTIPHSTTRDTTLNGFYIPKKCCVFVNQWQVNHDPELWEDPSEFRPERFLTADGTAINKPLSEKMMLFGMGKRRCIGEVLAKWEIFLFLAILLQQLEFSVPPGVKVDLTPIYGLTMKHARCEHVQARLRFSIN

pEC50, pIC50: −log10 of the molar value. In brackets after ≈: the same amount, converted by molar mass. Some results are limits rather than exact numbers.

Chain of Epidermal growth factor receptor (P00533 whole entry): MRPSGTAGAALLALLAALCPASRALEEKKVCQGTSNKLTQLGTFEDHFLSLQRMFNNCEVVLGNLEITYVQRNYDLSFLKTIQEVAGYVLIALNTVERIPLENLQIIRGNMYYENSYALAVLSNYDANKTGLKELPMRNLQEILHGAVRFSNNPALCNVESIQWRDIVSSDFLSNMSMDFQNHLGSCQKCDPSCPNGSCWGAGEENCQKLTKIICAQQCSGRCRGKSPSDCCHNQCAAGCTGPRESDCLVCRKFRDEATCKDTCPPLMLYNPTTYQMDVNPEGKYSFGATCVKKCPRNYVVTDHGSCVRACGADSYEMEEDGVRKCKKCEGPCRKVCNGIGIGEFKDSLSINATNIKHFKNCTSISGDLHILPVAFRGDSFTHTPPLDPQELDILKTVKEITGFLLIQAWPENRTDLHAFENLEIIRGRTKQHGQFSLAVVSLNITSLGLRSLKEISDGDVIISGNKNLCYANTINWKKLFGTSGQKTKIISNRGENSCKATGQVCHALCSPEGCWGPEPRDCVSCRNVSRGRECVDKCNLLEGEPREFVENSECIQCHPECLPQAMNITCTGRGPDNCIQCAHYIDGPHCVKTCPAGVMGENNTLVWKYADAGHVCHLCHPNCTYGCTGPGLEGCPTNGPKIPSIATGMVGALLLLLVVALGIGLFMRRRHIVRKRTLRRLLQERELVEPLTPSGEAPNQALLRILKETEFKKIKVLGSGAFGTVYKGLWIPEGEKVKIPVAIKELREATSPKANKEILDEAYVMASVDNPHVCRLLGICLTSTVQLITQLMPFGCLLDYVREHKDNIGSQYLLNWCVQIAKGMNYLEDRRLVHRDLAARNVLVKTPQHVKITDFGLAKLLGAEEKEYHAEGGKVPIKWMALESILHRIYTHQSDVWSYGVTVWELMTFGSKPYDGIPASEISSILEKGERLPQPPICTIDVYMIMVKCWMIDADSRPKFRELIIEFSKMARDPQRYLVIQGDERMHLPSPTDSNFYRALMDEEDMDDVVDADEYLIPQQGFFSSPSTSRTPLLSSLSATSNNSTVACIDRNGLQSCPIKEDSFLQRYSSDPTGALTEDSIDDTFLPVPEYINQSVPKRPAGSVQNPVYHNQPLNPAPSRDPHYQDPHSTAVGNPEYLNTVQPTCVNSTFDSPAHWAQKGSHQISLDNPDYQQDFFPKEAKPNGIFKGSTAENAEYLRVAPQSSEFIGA

In [1], `COc1cc(O)c2c(O)c(-c3cccc(Cl)c3)cnc2c1` had a pIC50 of 7.40.

With `COc1cccc(-c2cc(=O)c3ccccc3o2)c1N`, the results for the negative-log IC50 (pIC50) in experiment [2] and in [3] were 5.07 and 5.00, respectively. Moreover, the half-inhibitory concentration (IC50) in [4] was 2950 nM.

`Oc1ccc(-c2ccc3ccccc3n2)c2ccccc12` came in with an inhibition in experiment [5] greater than 80%. In addition, in experiment [6], the pIC50 is 5.19.

With `O=C1C[C@H](c2cccc(Br)c2)Nc2ccccc21`, the Activity in experiment [7] is 60%. The pIC50 in experiment [8] is 6.40.

Consider `COc1cccc(-c2c[nH]c3c(F)cc(F)cc3c2=O)c1`, for which the figures for the pIC50 in experiment [9] and in [10] were 7.22 and 7.30, respectively.

For `COc1ccc(-c2cc(=O)c3cc(OC)c(OC)c(OC)c3o2)cc1`, the results for the pIC50 in experiment [11] and in [13] were 5.77 and 5.52, respectively. In [12], the inhibition was 43%.

`O=c1c(O)c(-c2ccc(O)c(O)c2)oc2cc(O)cc(O)c12` [QUERCETIN]: the pEC50 in experiment [14] is 6.25. In experiment [15], this compound showed a pIC50 of 5.06.

As to `CCOC(=O)CCn1ccc2c3c(=O)cc(-c4ccccc4)[nH]c3ccc21`, the pIC50 in experiment [16], in [17], in experiment [18], in [19], in experiment [20] and in experiment [21] was 8.30 each time. Besides, the pIC50 was 8.30 in experiment [22]; 8.30 in experiment [23]; 8.30 in experiment [24]; 8.30 in experiment [25]; 8.30 in experiment [26]; 6.12 in experiment [13]. Further, the negative logarithm of the IC50 (pIC50) in experiment [27], in experiment [28], in experiment [29] and in [30] was 8.30 each time. In experiment [12], this compound returned an inhibition of 75%.

As to `O=c1cc(-c2ccccc2)[nH]c2ccc3c(ccn3CC3CC3)c12`, the negative logarithm of the IC50 (pIC50) in experiment [16], in experiment [20], in experiment [22], in experiment [23], in [24] and in experiment [25] was 7.70 each time. The pIC50 was 7.70 in experiment [26], 6.05 in experiment [13], 7.70 in experiment [27] and 7.70 in [30]. In [12], this compound gave an inhibition of 83%.

Take `CC(=O)Oc1cc2sc(-c3ccccc3)cc(=O)c2cc1OC(C)=O`: the EC50 in experiment [31] is 0.65 µg/mL (≈ 1.83 µM).

In [5], `Oc1ccc2nc(-c3ccccc3O)ccc2c1` had an inhibition greater than 80%. Besides, the pIC50 in [6] is 5.19.

On to `COc1ccc(-c2oc3c(OC)c(OC)c(OC)c(O)c3c(=O)c2OC)cc1O`, for which the results for the pIC50 in [11] and in experiment [13] were 6.89 and 6.10, respectively. This compound showed an inhibition in experiment [12] of 59%.

On to `COc1ccccc1-c1cc(=O)c2ccccc2[nH]1`, for which, in experiment [14], the pEC50 was 5.30. In addition, in experiment [15], the negative logarithm of the IC50 (pIC50) was 5.89.

Consider `COc1cccc(-c2c[nH]c3c(F)cccc3c2=O)c1`, for which the figures for the negative logarithm of the IC50 (pIC50) in experiment [9] and in experiment [10] were 7.52 and 8.00, respectively.

As to `COc1cc2c(cc1CC=C(C)C)C(=O)NC(c1ccc(O)cc1)N2` (configuration not stated), the pIC50 in experiment [32] is 6.30; in experiment [33] it was 6.60.

Compound `COc1ccc(-c2oc3cc(O)c(OC)c(O)c3c(=O)c2OC)cc1O` [CENTAUREIDIN] showed a pIC50 in experiment [11] of 6.62. In addition, the inhibition in experiment [12] was 35%.

For the compound `COc1cccc(-c2cc(=O)c3ccccc3s2)c1N`, the negative-log IC50 (pIC50) in [2] was 4.53; in [3], 4.52; in experiment [34], 5.36. The half-maximal inhibitory concentration (IC50) in [4] came to 13800 nM.

On to `CCOC(=O)C1=C[C@@H](OC(CC)CC)[C@H](NC(C)=O)[C@@H](N)C1` [OSELTAMIVIR], for which the negative-log EC50 (pEC50) in experiment [14] was 4.90. For the same compound, the pIC50 in experiment [15] was 5.72.

On to `CCCOc1ccc(-c2cc(=O)c3ccccc3o2)cc1`, for which the MIC in experiment [35] is 0.4 µg/mL (≈ 1.43 µM). In addition, the inhibition in experiment [36] came out at 33.9%.

Consider `COc1cc(O)c2c(O)cc(-c3cccc(F)c3)nc2c1`, for which the pIC50 in [37] was 4.84.

On to `COc1ccc(-c2cc(=O)c3cc(OC)c4cccc(OC)c4c3[nH]2)cc1`, for which the pIC50 in experiment [38] was 8.39.
